Source: patent US5178873A, “Essential fatty acid treatment” (Efamol Holdings PLC, priority 1990, dated 1993)

System: human epidermal PLA2
Test: inhibition of human epidermal PLA2 activity by fatty acids (1-palmitoyl 2-1-^14 C. palmitoyl phosphatidyl choline substrate)
Assay type: biochemical
Details: PLA2 isolated from human skin; stated for both test systems
Procedure: (§1) In the experimental work on which the above discussion is based, epidermal PLA2 was prepared from isolated mouse or human epidermal cells by detergent solubilisation, ion exchange chromatography and gel filtration. Both enzymes had molecular weights in the region of 68,000, a pH optimum around 9.0 and an absolute requirement for calcium ions. Phospholipids were prepared as both unilamellar vesicles and detergent micelles. PLA2 activity was readily detected using these substrates, with no apparent preference for polar head group. For the standard assay, 1-palmitoyl 2-1-^14 C. palmitoyl phosphatidyl choline was used. The reaction was initiated by the addition of purified enzyme and terminated by the addition of chloroform/methanol/acetic acid (3:4:1). The free fatty acid was extracted, separated by thin layer chromatography and quantified by scintillation counting. Ranges of concentrations of various fatty acids were added to the reaction mixture to assess their ability to inhibit PLA2. Dose response curves were constructed and the IC50 value (the concentration of fatty acid required to inhibit enzyme activity by 50%) was estimated. Similar experiments were performed using macrophages isolated from rat peritoneal cavity by lavage.

With `CCCCC/C=C\C/C=C\C/C=C\C/C=C\CCCC(=O)O` [20:4 cis 5,8,11,14-eicosatetraenoic (AA), cis 5,8,11,14-eicosatetraenoic] the “ability to inhibit PLA2, ranking among fatty acids tested” value (“ability to inhibit PLA2” for short) was “closest to SA in its ability to inhibit PLA2”.
In the case of `CC/C=C\C/C=C\C/C=C\C/C=C\CCCCC(=O)O` [delta-6,9,12,15-octadecatetraenoic acid], the “ability to inhibit PLA2” value is reported as “the most potent of all the fatty acids tested”.

Same assay, conditions: purified human epidermal enzyme; standard assay with 1-palmitoyl 2-1-^14 C. palmitoyl phosphatidyl choline

`CCCCCCCCCCC/C=C\CCCCC(=O)O` [18:1 cis 6-octadecenoic, cis 6-octadecenoic] and `CCCCCCCC/C=C\CCCCCCCCCC(=O)O` [20:1 cis 11-eicosenoic, cis 11-eicosenoic] cannot be ordered by IC50: greater than 100 µM for the first, greater than 100 µM for the second.

`CCCCC/C=C\C/C=C\CCCCCCCC(=O)O` [18:2 cis 9,12-octadecadienoic (linoleic), delta-9,12-octadecadienoic acid] and `CCCCC/C=C\C/C=C\CCCCCCCCCC(=O)O` [20:2 cis 11,14-eicosadienoic, cis 11,14-eicosadienoic] are within error of each other in IC50: 85 ± 5 µM for the first, 87 ± 6 µM for the second.

`CCCCC/C=C\C/C=C\C/C=C\C/C=C\CCCC(=O)O` [20:4 cis 5,8,11,14-eicosatetraenoic (AA), cis 5,8,11,14-eicosatetraenoic] and `CCCCC/C=C\C/C=C\C/C=C\CCCCC(=O)O` [cis 6,9,12-octadecatrienoic] are within error of each other in IC50: 45 ± 8 µM for the first, 52 ± 3 µM for the second.

Compared with `CC/C=C\C/C=C\C/C=C\C/C=C\C/C=C\CCCC(=O)O` [cis 5,8,11,14,17-eicosapentaenoic], `CC/C=C\C/C=C\C/C=C\C/C=C\CCCCC(=O)O` [delta-6,9,12,15-octadecatetraenoic acid] is 1.6-fold lower in IC50: 58 ± 4 µM for the first, 37 ± 3 µM for the second. The second is the more potent here.

`CCCCC/C=C\C/C=C\C/C=C\CCCCCCC(=O)O` [cis 8,11,14-eicosatrienoic] and `CC/C=C\C/C=C\C/C=C\CCCCCCCC(=O)O` [cis 9,12,15-octadecatrienoic] are within 1.5-fold of each other in IC50: 61 ± 5 µM for the first, 45 ± 6 µM for the second.

System: rat macrophage PLA2
Test: inhibition of rat macrophage PLA2 activity by fatty acids
Assay type: biochemical
Details: PLA2 from rat macrophages; stated for both test systems
Procedure: as §1

`CCCCC/C=C\C/C=C\C/C=C\C/C=C\CCCC(=O)O` [20:4 cis 5,8,11,14-eicosatetraenoic (AA), cis 5,8,11,14-eicosatetraenoic] was tested, and the “ability to inhibit PLA2” value was “closest to SA in its ability to inhibit PLA2”.
`CC/C=C\C/C=C\C/C=C\C/C=C\CCCCC(=O)O` [delta-6,9,12,15-octadecatetraenoic acid] was tested, and the “ability to inhibit PLA2” value was “the most potent of all the fatty acids tested”.

Same assay, conditions: macrophages isolated from rat peritoneal cavity by lavage

`CCCCCCCCCCC/C=C\CCCCC(=O)O` [18:1 cis 6-octadecenoic, cis 6-octadecenoic] and `CCCCCCCC/C=C\CCCCCCCCCC(=O)O` [20:1 cis 11-eicosenoic, cis 11-eicosenoic] cannot be ordered by IC50: greater than 100 µM for the first, greater than 100 µM for the second.

`CCCCC/C=C\C/C=C\C/C=C\C/C=C\CCCC(=O)O` [20:4 cis 5,8,11,14-eicosatetraenoic (AA), cis 5,8,11,14-eicosatetraenoic] and `CC/C=C\C/C=C\C/C=C\C/C=C\CCCCC(=O)O` [delta-6,9,12,15-octadecatetraenoic acid] are within error of each other in IC50: 65 ± 8 µM for the first, 52 ± 8 µM for the second.

`CCCCC/C=C\C/C=C\C/C=C\CCCCCCC(=O)O` [cis 8,11,14-eicosatrienoic] and `CC/C=C\C/C=C\C/C=C\CCCCCCCC(=O)O` [cis 9,12,15-octadecatrienoic] are within error of each other in IC50: 71 ± 11 µM for the first, 75 ± 9 µM for the second.
